Values of other authors as cited in patent US7314641B1, “High-bioavailability particle coated with fungicide and polymer” (Everest Pharm. Industrial Co., Ltd., priority 2007, dated 2008).

Key:
[1] = prior art statement on the compound of U.S. Pat. No. 4,267,179

- water solubility [1]: not water soluble
- Metabolic period in human beings: 96 h
Structure (SMILES): CCC(C)n1ncn(-c2ccc(N3CCN(c4ccc(OCC5COC(Cn6cncn6)(c6ccc(Cl)cc6Cl)O5)cc4)CC3)cc2)c1=O (single isomer, unassigned; (+)) [itraconazole, (+)-cis-4-[4-[4-[-4[[2-(2,4-dichlorophenyl)-2-(1H-1,2,4-triazol-1-ylmethyl)-1,3-dioxolan-4-yl]methoxy]phenyl]-1-piperazinyl]phenyl-2,4-dihydro-2-1(1-methylpropyl)-3H-1,2,4-triazol-3-one]
